Data reported in patent publication US20090142347A1, “Tissue-Nonspecific Alkaline Phosphatase (TNAP): a Therapeutic Target for Arterial Calcification” (THE BURNHAM INSTITUTE FOR MEDICAL RESEARCH, priority 2004, published 2009).

Columns and labels:
Test in all cases: biochemical
hTNALP = hTNALP (Homo sapiens, UniProt P05186)
Description: In brief, samples of the enzymes were added to microtiter plates coated with M2 anti-FLAG antibody, and saturating activities with the substrate pNPP were measured in 1 M DEA/HCl buffer, pH 9.8, containing 1 mM MgCl2 and 20 .micro.M ZnCl2.

hTNALP F108 = hTNALP F108 (Homo sapiens, UniProt P05186, E125F)
hTNALP A109 = hTNALP A109 (Homo sapiens, UniProt P05186, G126A)
hTNALP Q109 = hTNALP Q109 (Homo sapiens, UniProt P05186, G126Q)
hTNALP (F104, Q109) = hTNALP (F104, Q109) (Homo sapiens, UniProt P05186, E125F/G126Q)
hTNALP D120 = hTNALP D120 (Homo sapiens, UniProt P05186, S137D)
hTNALP N120 = hTNALP N120 (Homo sapiens, UniProt P05186, S137N)
hTNALP N166 = hTNALP N166 (Homo sapiens, UniProt P05186, D183N)
hTNALP A371 = hTNALP A371 (Homo sapiens, UniProt P05186, Y388A)
hTNALP A433 = hTNALP A433 (Homo sapiens, UniProt P05186, R450A)
hTNALP D433 = hTNALP D433 (Homo sapiens, UniProt P05186, R450D)
hTNALP Q434 = hTNALP Q434 (Homo sapiens, UniProt P05186, H451Q)
hTNALP (D433, E434) = hTNALP (D433, E434) (Homo sapiens, UniProt P05186, H451E/R450D)
Sequence of hTNALP (D433, E434) (P05186 18-501 R450D/H451E): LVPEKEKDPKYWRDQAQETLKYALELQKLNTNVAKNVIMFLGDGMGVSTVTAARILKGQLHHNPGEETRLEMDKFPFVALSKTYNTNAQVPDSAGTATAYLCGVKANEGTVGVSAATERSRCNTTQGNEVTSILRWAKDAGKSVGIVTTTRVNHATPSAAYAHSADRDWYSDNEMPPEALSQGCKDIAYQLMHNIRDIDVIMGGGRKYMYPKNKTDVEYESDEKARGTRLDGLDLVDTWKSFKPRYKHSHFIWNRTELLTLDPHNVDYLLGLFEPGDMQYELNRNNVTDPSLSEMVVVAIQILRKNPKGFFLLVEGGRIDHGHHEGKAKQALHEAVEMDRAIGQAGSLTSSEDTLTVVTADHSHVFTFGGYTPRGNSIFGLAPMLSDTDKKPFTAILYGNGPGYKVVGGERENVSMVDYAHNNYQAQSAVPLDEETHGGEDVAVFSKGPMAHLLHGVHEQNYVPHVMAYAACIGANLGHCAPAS

Sequence of hTNALP Q434 (P05186 18-501 H451Q): as the sequence (P05186 18-501 R450D/H451E) above, with D433R, E434Q counted along it
Sequence of hTNALP N120 (P05186 18-501 S137N): as the sequence (P05186 18-501 R450D/H451E) above, with S120N, D433R, E434H counted along it
Sequence of hTNALP A109 (P05186 18-501 G126A): as the sequence (P05186 18-501 R450D/H451E) above, with G109A, D433R, E434H counted along it
Sequence of hTNALP D120 (P05186 18-501 S137D): as the sequence (P05186 18-501 R450D/H451E) above, with S120D, D433R, E434H counted along it
Sequence of hTNALP D433 (P05186 whole entry R450D): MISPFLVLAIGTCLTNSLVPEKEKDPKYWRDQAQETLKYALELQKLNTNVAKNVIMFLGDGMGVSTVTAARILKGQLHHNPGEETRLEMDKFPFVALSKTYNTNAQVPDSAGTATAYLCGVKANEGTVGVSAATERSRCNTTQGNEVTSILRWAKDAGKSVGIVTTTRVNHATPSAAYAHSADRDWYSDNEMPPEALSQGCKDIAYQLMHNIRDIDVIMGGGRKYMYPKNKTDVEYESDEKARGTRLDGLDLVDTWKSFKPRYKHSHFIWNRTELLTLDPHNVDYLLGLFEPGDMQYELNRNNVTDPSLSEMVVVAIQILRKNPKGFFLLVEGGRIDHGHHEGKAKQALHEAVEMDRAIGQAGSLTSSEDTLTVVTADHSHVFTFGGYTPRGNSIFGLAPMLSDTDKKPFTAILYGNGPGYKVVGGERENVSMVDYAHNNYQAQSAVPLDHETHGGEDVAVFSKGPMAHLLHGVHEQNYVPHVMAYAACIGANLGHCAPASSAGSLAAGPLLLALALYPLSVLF
Sequence of hTNALP Q109 (P05186 18-501 G126Q): as the sequence (P05186 18-501 R450D/H451E) above, with G109Q, D433R, E434H counted along it
Sequence of hTNALP A433 (P05186 18-501 R450A): as the sequence (P05186 18-501 R450D/H451E) above, with D433A, E434H counted along it
Sequence of hTNALP F108 (P05186 18-501 E125F): as the sequence (P05186 18-501 R450D/H451E) above, with E108F, D433R, E434H counted along it
Sequence of hTNALP A371 (P05186 18-501 Y388A): as the sequence (P05186 18-501 R450D/H451E) above, with Y371A, D433R, E434H counted along it
Sequence of hTNALP (F104, Q109) (P05186 whole entry E125F/G126Q): as the sequence (P05186 whole entry R450D) above, with E125F, G126Q, D450R counted along it
Sequence of hTNALP N166 (P05186 18-501 D183N): as the sequence (P05186 18-501 R450D/H451E) above, with D166N, D433R, E434H counted along it
Sequence of hTNALP (P05186 18-501): as the sequence (P05186 18-501 R450D/H451E) above, with D433R, E434H counted along it

`N[C@@H](Cc1ccccc1)C(=O)O` [L-Phe, L-phenylalanine] showed a Ki (hTNALP) of 19 ± 6 mM, a Ki (hTNALP F108) of 3.7 ± 0.5 mM and a Ki (hTNALP A109) of 20 ± 4 mM. For the same compound, the Ki (hTNALP Q109) was 4 ± 1.1 mM, the Ki (hTNALP (F104, Q109)) was 2.1 ± 0.4 mM and the Ki (hTNALP D120) was 34 ± 4 mM. It also gave a Ki (hTNALP N120) of 23 ± 8 mM, a Ki (hTNALP N166) of 32 ± 5 mM and a Ki (hTNALP A371) of 65 ± 24 mM. It also gave a Ki (hTNALP A433) of 31 ± 3 mM, a Ki (hTNALP D433) of 23 ± 5 mM and a Ki (hTNALP Q434) of 9.8 ± 1 mM.

Work on `N=C(N)NCCCC[C@H](N)C(=O)O` [L-hArg, L-homoarginine] yielded a Ki (hTNALP) of 1.4 ± 0.1 mM, a Ki (hTNALP F108) of 48 ± 11 mM and a Ki (hTNALP A109) of 1.3 ± 0.2 mM. The Ki (hTNALP Q109) was 1.6 ± 0.1 mM, the Ki (hTNALP (F104, Q109)) was 15 ± 2 mM and the Ki (hTNALP D120) was 1.4 ± 0.1 mM. For the same compound, the Ki (hTNALP N120) was 1.3 ± 0.1 mM, the Ki (hTNALP N166) was 1.8 ± 0.1 mM and the Ki (hTNALP A371) was 31 ± 3 mM. For the same compound, the Ki (hTNALP A433) was 1.6 ± 0.2 mM, the Ki (hTNALP D433) was 1.5 ± 0.2 mM and the Ki (hTNALP Q434) was 2 ± 0.1 mM. The Ki (hTNALP (D433, E434)) was 13 ± 1.6 mM.
